For one experiment, the target named is T1, elastase (Homo sapiens, UniProt P08246).
T1 sequence (P08246 30-267): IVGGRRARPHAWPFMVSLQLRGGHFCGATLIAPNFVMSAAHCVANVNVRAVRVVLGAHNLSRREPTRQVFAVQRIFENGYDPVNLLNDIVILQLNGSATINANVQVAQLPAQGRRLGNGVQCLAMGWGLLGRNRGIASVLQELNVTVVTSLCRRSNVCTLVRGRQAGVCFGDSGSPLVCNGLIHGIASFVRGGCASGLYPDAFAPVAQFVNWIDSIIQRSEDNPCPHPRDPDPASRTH
As to the kind of experiment: Elastase inhibition (in vitro). Particulars: in vitro assay per Cha; did not inhibit elastase. In kind it is biochemical. From the text: It should be noted that the pyrimidine-based trifluoromethyl ketones (FIG. 2) were recently described as inhibitors of the serene protease, elastase. Since ICE is a cysteine protease and it is known in the prior art that trifluoromethyl ketones are rather poor inhibitors of cysteine proteases (See, Imperialia, B. and Ables, R. H., Biochemistly (1986), 2, 3760-7), it is expected that the pyrimidines of FIG. 2 would not be inhibitors of ICE. Also, it is known that ICE requires the aspartic acid side chain (—CH2COOH) at PI. Pyrimidines which inhibit elastase (FIG. 2) contain the valine side chain (—CHMe2).
Compounds of examples 1, 6 and 7 were examined for their ability to inhibit elastase. The in vitro assay was carried out as described by Cha, Biochem. Pharmacol., (1975), 24, 2177-2185.

In experiment [1] the test system is release of mature IL-1β from human monocytes. In words: Human monocyte pulse chase assay, inhibition of release of mature IL-1β (called "in vivo"). The experiment is classed as cell-based. Particulars: freshly isolated human monocytes activated with fixed S. aureus, 2-3 donors, values approximate. How it is done:
In vivo inhibition (IC50) was determined based on Miller et al., “Inhibition of Mature IL-1β Production in Murine Macrophages and a Murine Model of Inflammation By WIN 67694, An Inhibitor of IL-1β Converting Enzyme, J. Immunol., 1994, 154, 1331, as follows:
Human monocytes were isolated from heparinized leukopheresis units obtained through Biological Specialty Corporation (Lansdale, Pa.). Monocytes were purified by Ficoll-Hupaque (Pharmacia Fine Chemicals, Piscataway, N.J.) gradient centrifugation and more than 95% pure monocyte populations obtained by centrifugal elutriation. The assay was performed on duplicate samples of freshly isolated human monocytes, cultured in suspension at 37° C. and rotated gently in conical bottom polypropylene tubes (Sardstedt Inc., Princeton, N.J.). Human monocytes at a concentration of 5×10^6 cells/mL were resuspended in 1 mL of RPMI 1640 (a common tissue buffer from M.A. Bioproducts, Walkersville, Md.) containing 1% fetal calf serum (FCS) (HyClone, Logan, Utah) and 50 μg/mL gentamycin (Gibco, Grand Island, N.Y.). The cells were treated either with a compound of the invention (i.e. test compound) or with a non-inhibitor (control compound, typically 0.03% DMSO) for 15 minutes and then activated with 0.01% fixed Staphylococcus aureus (The Enzyme Center, Malden, Mass.) for 1 hour. The cells were then centrifuged and resuspended in 1 mL of cysteine, methionine-free RPMI media containing 1% dialyzed FCS (Hyclone). The cells were pretreated with a test compound or control compound for 15 minutes after which 0.01% fixed S. aureus plus 100 μCi Tran 35-S label (ICN, Irvine, Calif.) was added and the cells incubated at 37° C. for 1 hour. After incubation, […]. The cells were again pretreated with a test or control compound for 15 minutes and then 0.01% S. aureus for 2 hours. […]
In the monocyte pulse chase assay, each test parameter was run in duplicate. […] When test compounds were evaluated, the percent inhibition of release of mature IL-β was calculated as follows: […]

The IC50 is the concentration needed to halve the response being measured. A higher IC50 goes with weaker potency.

Take `O=C(O)C[C@H](NC(=O)Cn1c(-c2ccc(F)cc2)ncc(NC(=O)OCc2ccccc2)c1=O)C(=O)COc1cc(C(F)(F)F)nn1-c1ccccc1` [Example 6, N-[2-(5-Benzyloxycarbonylamino-6-oxo-2-(4-fluorophenyl)-1,6-dihydro-1-pyrimidinyl)acetoyl]-L-aspartic Acid 5-(1-phenyl-3-trifluoromethyl)pyrazoloxymethyl Ketone]: the IC50 is no less than 10 µM at elastase and 0.1 to 10 µM in experiment [1].

In the case of `CC(C)OC(=O)Nc1cnc(-c2ccccc2)n(CC(=O)N[C@@H](CC(=O)O)C(=O)COc2cc(C(F)(F)F)nn2-c2ccccc2)c1=O` [Example 7, N-[2-(5-Isopropyloxycarbonylamino-6-oxo-2-phenyl-1,6-dihydro-1-pyrimidinyl)acetoyl]-L-aspartic Acid 5-(1-phenyl-3-trifluoromethyl)pyrazoloxymethyl Ketone], the IC50 is no less than 10 µM at elastase and 0.1 to 10 µM in experiment [1].

Consider `O=C(O)C[C@H](NC(=O)Cn1c(-c2ccc(F)cc2)ncc(NC(=O)OCc2ccccc2)c1=O)C(=O)COC(=O)c1c(Cl)cccc1Cl` [Example 1], for which the IC50 at elastase is no less than 10 µM; in experiment [1], 0.1 to 10 µM.

The values are drawn from patent US6407080B2, “N-(pyrimidinyl)-aspartic acid analogs as interleukin-1β converting enzyme inhibitors” (Vertex Pharmaceuticals Incorporated, priority 1994, dated 2002).
